Results taken from patent publication US11779555B2, “Combination of immunotherapy with local chemotherapy for the treatment of malignancies” (THE JOHNS HOPKINS UNIVERSITY, priority 2015, dated 2023).

Columns and labels:
[1] = tested on: intracranial GL-261 LUC gliomas; assay: Survival of mice with intracranial GL-261 gliomas; assay type: in vivo, C57BL/6J mice; conditions: Example 3; chemotherapy at day 14, post anti-PD1
Protocol: Tumor model: Female C57BL/6J mice (The Jackson Laboratory, Bar Harbor, Me.), 6 to 8 weeks old, were implanted (Day 0) with GL-261 LUC cells to establish intracranial gliomas, as previously described (Zeng et al., 2013). Briefly, mice were anesthetized with ketamine/xylazine (100 mg/kg ketamine, 10 mg/kg xylazine) and a small midline incision was made to expose the skull. A burr hole was then drilled directly over the striatum and 130,000 GL-261 LUC cells were implanted at a depth of 3 mm from the cortical surface. The tumor take rate was 100%. Day 7 post implantation, mice were imaged to assess the progress of tumor growth using an IVIS platform (In Vivo Imaging System, Caliper Life Sciences, Hopkinton, Mass.). Mice were then stratified into experimental treatment groups based on luminescence. Each treatment group had 5 to 15 mice in the survival experiments. […]
Surgical procedure: polymer implantation: Mice in the LC or EP treatment groups were anesthetized with ketamine/xylazine (100 mg/kg ketamine, 10 mg/kg xylazine). […] Mice were monitored for a period of 30 min after recovery for signs of neurological deficits. […]
Statistics: Survival was plotted using Kaplan-Meier curves, and curves were analyzed with the log-rank Mantel-Cox test using GraphPad Prism software (GraphPad Software, La Jolla, Calif.). […]

[2] = tested on: tumor infiltrating lymphocytes; assay: Flow cytometric analysis of tumor infiltrating lymphocytes (TILs)
From the text: Flow cytometric analysis of tumor infiltrating immune cells and peripheral lymphoid cell populations: At day 21 or day 30 post tumor implantation, mice were sacrificed using a lethal dose of ketamine/xylazine cocktail. The spleen, brain, cervical lymph nodes (LN), and bone marrow were harvested and passed through a 40-μm strainer. A 30%-37%-60% Percoll gradient (GE Healthcare, Buckinghamshire, UK) was used to isolate immune cell populations from brain tumors and the draining LNs. After centrifugation, the 37%-60% interface contained lymphocytes, monocytes, and microglia in the case of brain tumors, and lymphocytes and monocytes in the case of draining LNs.
(§1) Lymphocytes from all tissues were stimulated with PMA-Ionomycin and Golgi stop (eBioscience) for 4-6 hours in a 37° C. humidified incubator maintained at 5% CO2. […] For the memory T cells, lymphocytes were stained with CD62L PE (BD Biosciences) and CD44 BV421 (BD Biosciences). […] Appropriate isotype controls were used. For the adoptive transfer experiment, CD45.2 PE Clone: 104 (eBioscience) was used to stain the isolated lymphocytes.

CD3+ blood lymphocytes = assay: Circulating CD3+ lymphocytes in peripheral blood (serial blood draws); assay type: in vivo, C57BL/6J mice; conditions: Day 30 post implantation, end of regimen, lasting at least 2 weeks
Protocol: Peripheral blood was collected by cardiac puncture before harvesting other tissues at day 21 and 30. A total of 600 μL was collected from each mouse in heparin-coated tubes (BD Biosciences, Franklin Lakes, N.J.). Blood was mixed with PBS in a 1:1 ratio and overlaid onto a Ficoll-Paque Plus (GE Healthcare) base in a 1:3 ratio. After centrifugation, peripheral lymphocytes were extracted from the resulting horizon and were washed twice with PBS. In addition to the blood draws performed on days 21 or 30 post implantation, blood draws were also performed on days 26 and 41 post implantation. On these days, blood was taken via tail vein sampling and 100 μL of blood was collected for every mouse. Red blood cells were lysed using RBC Lysis Buffer (eBioscience) and subsequently stained with CD3 FITC Clone: 17A2 (eBioscience). All flow cytometry experiments were performed on a LSRII (BD Biosciences) and analysis was performed using FlowJo software (TreeStar, Ashland, Oreg.).

[3] = tested on: lymphocytes of draining lymph nodes, spleen and blood; assay: Flow cytometric analysis of draining lymph nodes and peripheral lymphoid organs
From the text: […] The spleen, brain, cervical lymph nodes (LN), and bone marrow were harvested and passed through a 40-μm strainer. A 30%-37%-60% Percoll gradient (GE Healthcare, Buckinghamshire, UK) was used to isolate immune cell populations from brain tumors and the draining LNs. After centrifugation, the 37%-60% interface contained lymphocytes, monocytes, and microglia in the case of brain tumors, and lymphocytes and monocytes in the case of draining LNs.
as §1

bone marrow cells = assay: Bone marrow cellularity and CD45+ leukocytes; assay type: in vivo, C57BL/6J mice
From the text: (§2) Appropriate isotype controls were used.

[4] = tested on: adoptively transferred ova specific (CD45.2) T cells; assay: Adoptive transfer of OT-I lymphocytes in GL-261 ova tumor bearing mice; assay type: in vivo; conditions: four days after adoptive transfer, three days after initiation of chemotherapy
From the text: Adoptive transfer experiments: For the adoptive transfer experiments, 5 week old female B6.SJL-Ptprca Pepcb/BoyJ mice expressing the congenic marker CD45.1 were used as the recipient mice. Inbred C57BL6/J (B6), B6.129S7-Rag1tm1Mom/J (RAG^−/−), B6.SJL-Ptprcb Pepcb/BoyJ (CD45.2) and C57BL/6-Tg(TcraTcrb)1100Mjb/J (OT-I) mice were purchased from The Jackson Laboratory. 6-8 weeks old female RAG−/− OT-I CD45.2 transgenic mice were used as the donor mice.
RAG−/− OT-I CD45.2 mice were lethally anesthetized and their spleens were harvested and passed through a 40-μM nylon mesh. Red blood cell lysis buffer was consecutively applied to remove red blood cells. Cells were counted, checked for their viability, and washed twice with PBS. Two million cells were transferred in 100 uL of PBS for every recipient mouse via retro-orbital injection.
Mice were implanted with 300,000 Gl-261-ova-luc cells at day 0 and RAG−/− OT-I CD45.2 lymphocytes were transferred at day 13: 1 day before starting treatment with chemotherapy. The experimental schedule of the GL-261-ova tumor experiments is explained in detail in FIG. 1.
as §2

OT-I T cells = assay: In vivo proliferation of adoptively transferred OT-I T cells in the spleen; set-up: species or system mice; conditions: three days after the transfer
Protocol: For in vivo cell proliferation tracing, OT-I RAG−/− splenocytes were labeled with cell proliferation dye eFluor450 (eBioscience, San Diego, Calif.) in the following way: Lymphocytes were isolated from spleen cells, their viability was checked post-isolation, and viable lymphocytes were washed with HBSS without Ca^2+ or Mg^2+ once in preparation for the staining. A 10 μM solution of the cell proliferation dye was made in HBSS without Ca^2+ and Mg^2+. After washing the isolated cells, the cells were reconstituted by adding the 10 μM dye solution to a concentration of 5×10^6 cells/mL. While the solution was added to the cells, the tube was gently vortexed to ensure homogeneous uptake of the dye by all cells.
The cells were incubated for 8 min in the dark at room temperature. Cells were quenched with 20 mls of HBSS with 20% FBS and were then spun at 1400 rpm for 5 min at 4° C. Cells were washed with HBSS without FBS an additional two times and cells were checked for viability. Cells were resuspended with HBSS (w/o FBS) to a concentration of 10×10^6 cells/mL. The cells were passed through a […] cell strainer to ensure they were in a single cell suspension and 100 μL of the cell suspension was injected retro-orbitally in the recipient mice immediately.

[5] = tested on: GL-261 LUC cells in the contralateral hemisphere; assay: Tumor re-challenge of long-term survivors; assay type: in vivo, mice
Protocol: Re-challenge experiments: Tumor burden was assessed weekly with IVIS imaging. Mice were considered “cured” of their brain tumors following initial treatment if no evidence of tumor was present at consecutive IVIS imaging sessions, and mice were further considered long-term survivors if no tumor was detected 90 days post implantation. […] Cells were prepared in 14 of PBS. Naïve mice were implanted in parallel as controls, and mice were followed with weekly IVIS imaging.

effector memory T cells = assay: IFNγ production of memory T cells after re-challenge; assay type: in vivo, mice; conditions: twenty days after re-challenge, PMA/Ionomycin stimulation
Protocol: as §2
Re-challenge experiments: Tumor burden was assessed weekly with IVIS imaging. Mice were considered “cured” of their brain tumors following initial treatment if no evidence of tumor was present at consecutive IVIS imaging sessions, and mice were further considered long-term survivors if no tumor was detected 90 days post implantation. Long-term survivors from each experimental group were re-challenged 90 days post implantation with 300,000 GL-261 LUC cells injected intracranially in the contralateral hemisphere. Cells were prepared in […]. Naïve mice were implanted in parallel as controls, and mice were followed with weekly IVIS imaging.

SMILES: O=NN(CCCl)C(=O)NCCCl [i.p. BCNU, BCNU]
- median survival [1]: 45 days
- percent of CD4+FoxP3+ regulatory cells (Tregs) in TILs ([2]; day 21): 55%
- percentage of recovered CD8+ TILs producing IFNγ ([2]; day 21): 35%
- density of CD3+ TILs (number of cells normalized by tumor volume) ([2]; day 30 post implantation): 40 cells
- CD3+ lymphocytes in peripheral blood (CD3+ blood lymphocytes): severely lymphodepleted
- CD3+ cells and CD8+ IFN-γ+ cells in draining lymph nodes ([3]; Example 3): lymphodepletion of both CD3+ cells and CD8+ IFN-γ+ cells
- lymphocytes recovered from spleen, LN and blood vs untreated or LC treated mice ([3]; cured mice, 4 months from tumor implantation): decreased number of recovered lymphocytes
- myelotoxicity (BM cellularity and CD45 leukocytes vs control) (bone marrow cells; Example 2): late myelotoxicity
- CD45+ bone marrow cells (leukocytes) vs control, LC or LC+anti-PD1 (bone marrow cells; Example 3): decreased cell numbers
- bone marrow cellularity (live-dead staining) (bone marrow cells; Example 3): significant decrease in cellularity
- CD3+CD45.2+ cells within the tumor microenvironment [4]: 4%
- CD3+CD45.2+ transferred cells in the DLNs [4]: 3%
- OT-I cells divided (dilution of cell proliferation dye) (OT-I T cells): 29.9%
- size of the spleen at necropsy vs LC and anti-PD1 treated mice ([5]; experimental day 104): significantly decreased
- tumor growth after re-challenge in the contralateral hemisphere ([5]; long term survivors): not able to inhibit tumor growth
- IFNγ production of CD8+CD44[high]CD62L[low] cells from DLNs, spleen or peripheral blood (effector memory T cells): dysfunctional IFNγ production
